This note sets out measurements from ChEMBL document CHEMBL5143683, “Explorations of novel pyridine-pyrimidine hybrid phosphonate derivatives as aurora kinase inhibitors” (Bioorg Med Chem Lett, 2022).

pIC50: −log10 of the molar value. Activity calls are given as the source filed them. No cut-off for these calls is given here.

The subject of series [1] is HepG2. The series can be described thus: Anticancer activity against human HepG2 cells assessed as reduction in cell viability measured after 24 hrs by MTT assay. Particulars: HepG2, 24 h. The series is classed as functional, cell-based. A general note: Tetrazolium dyes change colour on reduction, which living cells bring about.
Series [2] has as its system HL-60. The series can be described thus: Anticancer activity against human HL-60 cells assessed as reduction in cell viability measured after 24 hrs by MTT assay. The series is classed as functional, cell-based. The settings on record: HL-60, 24 h.
Series [3] relates to HeLa. Kind of series: Anticancer activity against human HeLa cells assessed as reduction in cell viability measured after 24 hrs by MTT assay. The series is classed as functional, cell-based.
Series [4] relates to A549. Kind of series: Anticancer activity against human A549 cells assessed as reduction in cell viability measured after 24 hrs by MTT assay. The format is functional, cell-based. Particulars: A549, 24 h.
Series [5] concerns MCF7. The series can be described thus: Anticancer activity against human MCF7 cells assessed as reduction in cell viability measured after 24 hrs by MTT assay. The series is classed as functional, cell-based. Particulars: MCF7, 24 h.
The nature of series [6]: Cytotoxicity against human L02 cells assessed as reduction in cell viability measured after 24 hrs by MTT assay. The series is classed as toxicity, cell-based.
Series [7] addresses T1, Aurora kinase A (Homo sapiens, UniProt O14965).
T1 sequence (O14965 whole entry): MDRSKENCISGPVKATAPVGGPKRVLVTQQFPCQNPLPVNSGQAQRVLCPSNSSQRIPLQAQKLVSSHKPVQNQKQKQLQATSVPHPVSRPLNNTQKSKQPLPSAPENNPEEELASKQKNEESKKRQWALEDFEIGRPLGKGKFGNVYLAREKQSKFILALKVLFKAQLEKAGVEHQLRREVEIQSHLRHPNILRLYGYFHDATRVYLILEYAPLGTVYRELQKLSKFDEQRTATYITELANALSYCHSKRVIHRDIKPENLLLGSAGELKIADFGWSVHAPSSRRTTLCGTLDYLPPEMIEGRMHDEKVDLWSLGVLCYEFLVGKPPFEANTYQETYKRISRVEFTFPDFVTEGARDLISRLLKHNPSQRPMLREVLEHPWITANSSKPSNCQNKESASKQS
The series can be described thus: Inhibition of Aurora A (unknown origin) using kemptide acetate as substrate measured after 30 mins by kinase-glo luminescence assay. Background: In Kinase-Glo more light means more ATP remaining.

Series [8] can be described thus: Selectivity index, ratio of IC50 for human L02 cells to IC50 for human Hep-G2 cells. The settings on record: L02 cells and Hep-G2 cells, read-out: Ratio IC50. The format is toxicity.
For series [9], the target named is Aurora kinase B (Homo sapiens, UniProt Q96GD4). Kind of series: Inhibition of Aurora B (unknown origin) using kemptide acetate as substrate measured after 30 mins by kinase-glo luminescence assay.
Chain of Aurora kinase B (Q96GD4 whole entry): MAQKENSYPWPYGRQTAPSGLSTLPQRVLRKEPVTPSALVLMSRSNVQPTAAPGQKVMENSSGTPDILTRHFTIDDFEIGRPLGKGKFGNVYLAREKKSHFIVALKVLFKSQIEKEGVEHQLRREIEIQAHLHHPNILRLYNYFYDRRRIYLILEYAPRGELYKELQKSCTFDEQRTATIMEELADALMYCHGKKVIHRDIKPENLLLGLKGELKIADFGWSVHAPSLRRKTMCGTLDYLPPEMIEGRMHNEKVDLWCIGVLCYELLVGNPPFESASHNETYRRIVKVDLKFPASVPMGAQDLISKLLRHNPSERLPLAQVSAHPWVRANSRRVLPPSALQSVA
Series [10] has as its system HepG2. Kind of series: Induction of morphological changes in human HepG2 cells assessed as […] at IC50 by inverted microscopy. The format is functional, cell-based.
Series [11] relates to HepG2. The series can be described thus: Induction of morphological changes in human HepG2 cells assessed as cell detachment at IC50 by inverted microscopy. The format is functional, cell-based.
The test system of series [12] is HepG2. The series can be described thus: Induction of morphological changes in human HepG2 cells assessed as cell shrinkage at IC50 by inverted microscopy. The series is classed as functional, cell-based.
In series [13] the test system is HeLa. The series can be described thus: Induction of morphological changes in human HeLa cells assessed as reduction in number of viable cells at IC50 by inverted microscopy. The series is classed as functional, cell-based.
The subject of series [14] is HeLa. Kind of series: Induction of morphological changes in human HeLa cells assessed as […] at IC50 by inverted microscopy. The format is functional, cell-based.
Series [15] has as its system HepG2. The series can be described thus: Induction of morphological changes in human HepG2 cells assessed as reduction in number of viable cells at IC50 by inverted microscopy. The series is classed as functional, cell-based.
The subject of series [16] is HeLa. Kind of series: Induction of morphological changes in human HeLa cells assessed as cell shrinkage at IC50 by inverted microscopy. The format is functional, cell-based.
For series [17], the system named is HeLa. Kind of series: Induction of morphological changes in human HeLa cells assessed as cell detachment at IC50 by inverted microscopy. The format is functional, cell-based.

By pIC50 is commonly meant the negative decadic logarithm of the IC50, by convention in mol/L. Broadly, the IC50 is the point on the concentration scale where inhibition reaches its midpoint.

In the case of `CCOP(=O)(OCC)C(Nc1ccc(C)c(Nc2nccc(-c3cccnc3)n2)c1)c1ccc(OC)cc1` (stereo not given), the negative-log IC50 (pIC50) was 4.60 in series [1]; 5.10 in [2]; 4.89 in series [3]; 4.61 in [4]; 5.19 in [5].

For the compound `CCOP(=O)(OCC)C(Nc1ccc(C)c(Nc2nccc(-c3cccnc3)n2)c1)c1ccncc1` (stereo not given), the pIC50 in [1] is 4.55; in series [2] it was 5.14; in series [3], 4.74; in series [4], 4.55; in series [5] it was 5.20.

Consider `CCOP(=O)(OCC)C(Nc1ccc(C)c(Nc2nccc(-c3cccnc3)n2)c1)c1ccc(O)cc1` (stereo not given), for which the pIC50 in series [1] is 4.67; in series [2] it was 5.22; in [3], 4.98; in series [4], 4.67; in series [5] it was 5.25.

For `Cc1cc(Nc2cc(N3CCN(C)CC3)nc(Sc3ccc(NC(=O)C4CC4)cc3)n2)n[nH]1` [TOZASERTIB], the negative-log IC50 (pIC50) in series [1] was 4.74; in [2], 5.73; in [3], 5.20; in [4], 4.82; in series [5], 5.99.

Regarding `CCOP(=O)(OCC)C(Nc1ccc(C)c(Nc2nccc(-c3cccnc3)n2)c1)c1ccccc1` (stereo not given), the pIC50 is 4.38 in series [1]; 5.04 in series [2]; 4.49 in series [3]; 4.40 in series [4]; 5.05 in [5].

Consider `CCOP(=O)(OCC)C(Nc1ccc(C)c(Nc2nccc(-c3cccnc3)n2)c1)c1scnc1C` (stereo not given), for which the IC50 at 24 h in series [6] worked out at 74.9 µM. Further, the negative-log IC50 (pIC50) was 4.74 in series [1]; 5.63 in [2]; 5.22 in [3]; 7.48 in series [7]; 4.86 in series [4]; 5.81 in [5]. In series [9], this compound had a pIC50 of 7.82. Further, in [8], the selectivity ratio amounted to 5.5.

`CCOP(=O)(OCC)C(Nc1ccc(C)c(Nc2nccc(-c3cccnc3)n2)c1)c1ccn[nH]1` (stereo not given): the 50% inhibitory concentration (IC50) at 24 h in series [6] amounted to 83.2 µM. The negative logarithm of the IC50 (pIC50) in series [1] is 4.73; in series [2], 5.52; in [3] it was 5.16; in series [7] it was 7.82; in [4] it was 4.82; in series [5], 5.63. Also, in series [9], the negative-log IC50 (pIC50) is 7.92. For the same compound, the selectivity ratio in [8] is 5.5.

`CCOP(=O)(OCC)C(Nc1ccc(C)c(Nc2nccc(-c3cccnc3)n2)c1)c1ccc(Cl)cc1` (stereo not given): the pIC50 was 4.61 in series [1]; 5.14 in series [2]; 4.92 in series [3]; 4.62 in series [4]; 5.22 in [5].

For `CCOP(=O)(OCC)C(Nc1ccc(C)c(Nc2nccc(-c3cccnc3)n2)c1)N1CCCCC1` (stereo not given), the pIC50 in [1] is 4.47; in series [2] it was 5.09; in series [3], 4.67; in series [4], 4.49; in series [5], 5.16.

As for `CCOP(=O)(OCC)C(Nc1ccc(C)c(Nc2nccc(-c3cccnc3)n2)c1)c1ccc[nH]1` (stereo not given), in [6], the half-maximal inhibitory concentration (IC50) at 24 h is 95.3 µM. Besides, the pIC50 in [1] is 4.76; in series [2], 5.68; in series [3] it was 5.24; in series [7], 7.38; in [4] it was 4.87; in series [5], 5.80. In addition, the negative logarithm of the IC50 (pIC50) in series [9] is 7.66. Besides, the result in [10], in [11], in series [12], in series [13], in series [14] and in [15] was Active. Moreover, the result in [16] and in series [17] was Active. Also, the selectivity ratio in series [8] was found to be 7.

As for `CCOP(=O)(OCC)C(Nc1ccc(C)c(Nc2nccc(-c3cccnc3)n2)c1)c1ccsc1` (stereo not given), the pIC50 was 4.73 in series [1]; 5.52 in series [2]; 5.15 in series [3]; 4.80 in series [4]; 5.61 in [5].

Turning to `CCOP(=O)(OCC)C(Nc1ccc(C)c(Nc2nccc(-c3cccnc3)n2)c1)c1ccc(Cl)c(Cl)c1` (stereo not given), the pIC50 in series [1] is 4.60; in [2], 5.08; in series [3], 4.89; in series [4], 4.60; in series [5], 5.15.

With `CCOP(=O)(OCC)C(Nc1ccc(C)c(Nc2nccc(-c3cccnc3)n2)c1)c1c[nH]c2ccccc12` (stereo not given), the pIC50 in [1] was 4.70; in series [2], 5.31; in series [3], 5.05; in series [4], 4.74; in [5], 5.33.

With `CCOP(=O)(OCC)C(Nc1ccc(C)c(Nc2nccc(-c3cccnc3)n2)c1)N1CCOCC1` (stereo not given), the negative logarithm of the IC50 (pIC50) is 4.52 in [1]; 5.12 in series [2]; 4.69 in [3]; 4.53 in series [4]; 5.17 in series [5].

As for `CCOP(=O)(OCC)C(Nc1ccc(C)c(Nc2nccc(-c3cccnc3)n2)c1)c1ccc(N)cc1` (stereo not given), the pIC50 was 4.67 in [1]; 5.19 in series [2]; 4.99 in series [3]; 4.67 in [4]; 5.27 in series [5].

Consider `CCOP(=O)(OCC)C(Nc1ccc(C)c(Nc2nccc(-c3cccnc3)n2)c1)c1ccc(F)cc1` (stereo not given), for which the negative-log IC50 (pIC50) was 4.60 in series [1]; 5.14 in series [2]; 4.91 in series [3]; 4.62 in series [4]; 5.21 in series [5].

Take `CCOP(=O)(OCC)C(Nc1ccc(C)c(Nc2nccc(-c3cccnc3)n2)c1)c1ccco1` (stereo not given): the pIC50 in [1] is 4.72; in series [2], 5.42; in series [3] it was 5.15; in series [4], 4.80; in series [5], 5.47.

Regarding `CCOP(=O)(OCC)C(Nc1ccc(C)c(Nc2nccc(-c3cccnc3)n2)c1)c1ccc(C)cc1` (stereo not given), the pIC50 was 4.66 in series [1]; 5.17 in series [2]; 4.97 in series [3]; 4.66 in [4]; 5.22 in series [5].
